# Values quoted from earlier work in PMC7605553 (bioRxiv, 2020).
# Structures can show the parent of a compound that is named as a salt.
# System: SARS-CoV-2
# Settings: read-out: EC50 for inhibition of SARS-CoV-2 infection; Calu-3 cells
smiles,measurement,value
CN(C)C(=O)COC(=O)Cc1ccc(OC(=O)c2ccc(NC(=N)N)cc2)cc1 [camostat mesylate],EC50,1 µM
